This passage reports IC50 results from patent publication US12152038B2, “Vasopressin receptor antagonists and products and methods related thereto” (Neumora Therapeutics, Inc., priority 2017, dated 2024).

pIC50: −log10 of the molar value. Bounds are passed on as bounds.

In this assay the target is T1, human Arginine Vasopressin Receptor V2 (AVPR2) (Homo sapiens, UniProt P30518).
T1 construct: host or cells: 1321N1 (cAMPZen V2 assay ready frozen cells)
T1 sequence (P30518 whole entry): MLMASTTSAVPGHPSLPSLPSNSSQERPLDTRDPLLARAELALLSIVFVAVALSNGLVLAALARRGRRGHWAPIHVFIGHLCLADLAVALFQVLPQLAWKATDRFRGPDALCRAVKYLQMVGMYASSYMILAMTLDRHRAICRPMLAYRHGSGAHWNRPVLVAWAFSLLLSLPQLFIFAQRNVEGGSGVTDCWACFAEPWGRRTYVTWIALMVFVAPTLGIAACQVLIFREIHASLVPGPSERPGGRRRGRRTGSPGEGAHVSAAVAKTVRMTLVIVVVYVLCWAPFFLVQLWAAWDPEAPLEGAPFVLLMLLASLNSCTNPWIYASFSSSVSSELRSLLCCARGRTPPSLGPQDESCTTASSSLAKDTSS
In words: Vasopressin V2 receptor antagonist assay (TR-FRET cAMP, 1321N1 cells). The class given is cell-based.
As usually defined, the pIC50 is the negative decadic logarithm of the IC50, by convention in mol/L. For `CCC1COc2cc(Cl)ccc2N1C(=O)N1CC2(C1)CN(c1ccc(F)cn1)C2` (single isomer, unassigned) [1-55-B], the pIC50 was above 7.00.

As to `CC1COc2cc(Cl)ccc2N1C(=O)N1CC2(C1)CN(c1ncccc1F)C2` (single isomer, unassigned) [1-57-A], the pIC50 was above 7.00.

For the compound `CC1COc2cc(Cl)ccc2N1C(=O)N1CC2(C1)CN(c1cnccn1)C2` (single isomer, unassigned) [1-58-B], the pIC50 was above 7.00.

As for `COc1ccc2c(c1)OCC(C)N2C(=O)N1CC2(C1)CN(c1ccc(F)cn1)C2` (single isomer, unassigned) [1-59-B], the pIC50 is 6.30 to 7.00.

Turning to `CC1COc2cc(Cl)ccc2N1C(=O)N1CC2(C1)CN(c1ccccn1)C2` (single isomer, unassigned) [1-60-B], the pIC50 was above 7.00.

`CC1COc2cc(F)ccc2N1C(=O)N1CC2(C1)CN(c1cnccn1)C2` (single isomer, unassigned) [1-65-B] showed a pIC50 of at most 6.00.

With `CC1COc2cc(F)ccc2N1C(=O)N1CC2(C1)CN(c1ccccn1)C2` (single isomer, unassigned) [1-66-B], the pIC50 was 6.00 to 6.30.

For `CC1COc2cc(F)ccc2N1C(=O)N1CC2(C1)CN(c1ncccc1F)C2` (single isomer, unassigned) [1-67-A], the pIC50 was 6.30 to 7.00.

`CC1COc2cc(Cl)ccc2N1C(=O)N1CC2(C1)CN(c1ccc(F)cn1)C2` (single isomer, unassigned) [1-73-A]: the pIC50 is at most 6.00.

In turn, `CC1COc2cc(Cl)ccc2N1C(=O)N1CC2(C1)CN(c1ccc(F)cn1)C2` (single isomer, unassigned) [1-73-B] had a pIC50 above 7.00.

Turning to `O=C(N1CC2(C1)CN(c1ccc(F)cn1)C2)N1CCC(O)c2cc(Cl)ccc21` (single isomer, unassigned) [13-1-B], the pIC50 was at most 6.00.

`CC1COc2cc(Cl)ccc2N1C(=O)N1CC2(C1)CN(c1ncc(F)cn1)C2` (single isomer, unassigned) [18-2-B] had a pIC50 of 6.30 to 7.00.

`Cc1cnc(N2CC3(CN(C(=O)N4c5ccc(Cl)cc5OCC4C)C3)C2)nc1` (single isomer, unassigned) [20-13-B] had a pIC50 above 7.00.

As to `CC1COc2cc(Cl)ccc2N1C(=O)N1CC2(C1)CN(c1cc(=O)n(C)cn1)C2` (single isomer, unassigned) [20-14-B], the pIC50 was 6.00 to 6.30.

For `CC1COc2cc(Cl)ccc2N1C(=O)N1CC2(C1)CN(c1nn(C)c3ncccc13)C2` (single isomer, unassigned) [20-15-B], the pIC50 is above 7.00.

For the compound `Cc1cccc(N2CC3(CN(C(=O)N4CCOc5cc(Cl)ccc54)C3)C2)n1` [1-3], the pIC50 is 6.30 to 7.00.

Take `O=C(N1CC2(C1)CN(c1cnc(F)cn1)C2)N1CCOc2cc(Cl)ccc21` [1-18]: the pIC50 is at most 6.00.

`Cc1cnc(N2CC3(CN(C(=O)N4CCOc5cc(Cl)ccc54)C3)C2)cn1` [1-20] showed a pIC50 of at most 6.00.

The compound `Cc1cncc(N2CC3(CN(C(=O)N4CCOc5cc(Cl)ccc54)C3)C2)n1` [1-22] showed a pIC50 of at most 6.00.

In the case of `Cc1nc(N2CC3(CN(C(=O)N4CCOc5cc(Cl)ccc54)C3)C2)ccc1F` [1-30], the pIC50 is 6.00 to 6.30.

In turn, `N#Cc1cccc(N2CC3(CN(C(=O)N4CCOc5cc(Cl)ccc54)C3)C2)n1` [1-39] had a pIC50 of at most 6.00.

In turn, `COc1nccnc1N1CC2(CN(C(=O)N3CCOc4cc(Cl)ccc43)C2)C1` [1-43] gave a pIC50 of at most 6.00.

Regarding `Cc1cc(F)nc(N2CC3(CN(C(=O)N4CCOc5cc(Cl)ccc54)C3)C2)c1` [1-45], the pIC50 is at most 6.00.

Compound `O=C(N1CC2(C1)CN(c1ccc(F)c(F)n1)C2)N1CCOc2cc(Cl)ccc21` [1-49] gave a pIC50 of at most 6.00.

`O=C(N1CC2(C1)CN(c1cc(F)cc(F)n1)C2)N1CCOc2cc(Cl)ccc21` [1-51] had a pIC50 of at most 6.00.

In turn, `N#Cc1ccnc(N2CC3(CN(C(=O)N4CCOc5cc(Cl)ccc54)C3)C2)c1` [1-53] gave a pIC50 of at most 6.00.

`CC1COc2cc(Cl)ccc2N1C(=O)N1CC2(C1)CN(c1ccccn1)C2` (stereo not shown) [1-60] had a pIC50 of 6.30 to 7.00.

Compound `O=C(N1CC2(C1)CN(c1ccc(F)cn1)C2)N1CCOc2cc(F)ccc21` [1-64] gave a pIC50 of at most 6.00.

On to `CC1COc2cc(F)ccc2N1C(=O)N1CC2(C1)CN(c1ncccc1F)C2` (stereo not shown) [1-67], for which the pIC50 is at most 6.00.

Compound `COc1ccc(N2CC3(CN(C(=O)N4CCOc5cc(Cl)ccc54)C3)C2)nc1` [1-68] gave a negative-log IC50 (pIC50) of at most 6.00.

Compound `O=C(N1CC2(C1)CN(c1cccc(F)n1)C2)N1CCOc2cc(Cl)ccc21` [1-69] gave a pIC50 of at most 6.00.

Compound `O=C(N1CC2(C1)CN(c1cc(F)ccn1)C2)N1CCOc2cc(Cl)ccc21` [1-70] gave a pIC50 of at most 6.00.

Compound `O=C(N1CC2(C1)CN(c1cccnn1)C2)N1CCOc2cc(Cl)ccc21` [1-71] showed a negative-log IC50 (pIC50) of at most 6.00.

As for `CC1COc2cc(Cl)ccc2N1C(=O)N1CC2(C1)CN(c1noc3ccccc13)C2` (stereo not shown) [21-1, (6-(benzo[d]isoxazol-3-yl)-2,6-diazaspiro[3.3]heptan-2-yl)(7-chloro-3-methyl-2,3-dihydro-4H-benzo[b][1,4]oxazin-4-yl)methanone], the pIC50 was at most 6.00.

`CC1COc2cc(Cl)ccc2N1C(=O)N1CC2(C1)CN(c1ncccc1C#N)C2` (stereo not shown) [21-2] showed a pIC50 of at most 6.00.

As for `Cc1cncc(N2CC3(CN(C(=O)N4c5ccc(Cl)cc5OCC4C)C3)C2)n1` (stereo not shown) [21-3], the pIC50 was above 7.00.

In the case of `Cc1cnnc(N2CC3(CN(C(=O)N4c5ccc(Cl)cc5OCC4C)C3)C2)c1` (stereo not shown) [21-4], the pIC50 was 6.30 to 7.00.

Regarding `CC1COc2cc(Cl)ccc2N1C(=O)N1CC2(C1)CN(c1ncncc1F)C2` (stereo not shown) [21-5], the pIC50 is 6.30 to 7.00.

As to `CC1COc2cc(Cl)ccc2N1C(=O)N1CC2(C1)CN(c1ccncn1)C2` (stereo not shown) [21-6], the pIC50 was at most 6.00.

For `Cc1nccc(N2CC3(CN(C(=O)N4c5ccc(Cl)cc5OCC4C)C3)C2)n1` (stereo not shown) [21-8], the pIC50 was 6.30 to 7.00.

For the compound `CCc1cnc(N2CC3(CN(C(=O)N4c5ccc(Cl)cc5OCC4C)C3)C2)nc1` (stereo not shown) [21-9], the pIC50 is 6.30 to 7.00.

For `CC1COc2cc(Cl)ccc2N1C(=O)N1CC2(C1)CN(c1nccc(C(F)(F)F)n1)C2` (stereo not shown) [21-10], the negative logarithm of the IC50 (pIC50) is 6.30 to 7.00.

`Cc1cc(N2CC3(CN(C(=O)N4c5ccc(Cl)cc5OCC4C)C3)C2)ncn1` (stereo not shown) [21-11] gave a pIC50 of 6.00 to 6.30.
